Patent US20180312539A1, “METHODS FOR PREPARING HIGH THROUGHPUT PEPTIDOMIMETICS, ORALLY BIOAVAILABLE DRUGS AND COMPOSITIONS CONTAINING SAME” (University of Southern California, priority 2011, published 2018)

Assays:
[1] = PAMPA (parallel artificial membrane permeability assay); format: in vitro ADME; conditions: lauric acid in place of biotin
Procedure: PAMPA assays were set up following manufacturer's instructions. Briefly, 1% phosphatidyl choline (Sigma) was dissolved in dodecane (Sigma) at 65° C. for 3 min. The membrane was applied to each well as per manufacturer's instructions. […] 100 μL of sample was put into each donor well. The acceptor wells contained 300 μL of a 5% DMSO in PBS solution. Passive diffusion was allowed to occur at room temperature for 24 hrs. […] Absorbance at 215 nm was monitored. The area under the peptide peak was integrated.
The acceptor well contained 10 mM DTT as a reducing agent. Data was collected after 6, 12 and 24 hrs. Absorbance at 280 nm was analyzed. The following formula was used to calculate Log Pe: […]
Applicants employed a parallel artificial membrane permeability assay (PAMPA) that will allow for the rapid screening of peptide passive diffusion across a phospholipid bilayer. (Schmidt, et al. (2003) J. Millipore Corporation Application Note AN1729EN00.). In this assay, two chambers are separated by a phospholipid bilayer supported on an inert membrane. Applicants chose to initially focus Applicants examination on peptide ligands developed to bind with high affinity to the heterotrimeric G-proteins Gαi1*GDP and Gα12*GDP. Ja, W. W., et al. (2004) Biochemistry 43:9265; Millward, S. W., et al. (2007) ACS Chem. Biol. 2:625; Fiacco, S. et al. (2008) ChemBioChem 9:2200. These ligands included variations in sequence, size, overall charge, and polarity as well as comparing linear and cyclic peptides, end and biotinylation. […] According to classical methods of increasing permeability. Pinski, C. A., et al. (2001) Advanced Drug Delivery Reviews 46:3. Applicants postulated that the removal of hydrogen bond donors by N-methylation should further increase the permeability of this peptide.

[2] = Membrane localization on PAMPA membrane; format: in vitro ADME; conditions: 0.2 mM peptide, 0 and 15 min
Excerpt: Membrane was set up as described above. […] Care was taken not to disrupt the membrane when samples were removed.
In order to study the mechanism of this enhanced permeation in more detail, Applicants quantitated the biotin-peptide conjugate's membrane localization.

With CCCCCCCCCCCC(=O)O [Lauric acid] the “Log Pe” value [1] was −6.8 and the membrane localization [2] was 27%.
